How the values were obtained:
hOx1R [1] = molecular target: T1, hOx1R (Homo sapiens (Human), UniProt O43613); test: Radioligand binding assay, [3H]-SB649868, hOx1R; conditions: radioligand [3H]-SB649868, competition
Procedure: (§1) For crude cell membrane preparations, cells (CHO, Chinese hamster ovary or HEK, human embryonic kidney) expressing human orexin 1 or human orexin 2 receptors, were washed with HEPES (10 mM, pH 7.5), scraped off the culture plates with the same buffer, and centrifuged at 4° C. for 5 min at 2500×g. The cell pellet was either stored at −80° C. or used directly. Before the experiments, cell membranes were re-suspended in binding assay buffer (10 mM HEPES, 0.5% (w/v) bovine serum albumin, pH 7.5) by homogenisation with a Polytron homogeniser at 50 Hz for 20 s. Cell membranes were also used as made available by commercial providers.
(§2) Bound radioactivity was measured, and data were analysed with the program XLFIT or Graphpad Prism. Protein concentration was determined according to the Bradford/BioRad Protein Assay Kit.
(§3) In competition experiments, cell homogenates (150 μl) were incubated in assay buffer (10 mM HEPES, pH 7.5, 0.5% (w/v) bovine serum albumin, 5 mM MgCl2, 1 mM CaCl2, and tween 0.05%) for 1 h at room temperature with about 1 nM of the radioligand [^3H]-SB649868, 66 Ci/mmole, 50 μl), and with various concentrations of compounds of the invention (50 μl) in triplicates; non-specific binding was determined in the presence of almorexant (10 μM).

hOx2R [2] = molecular target: T2, hOx2R (Homo sapiens (Human), UniProt O43614); test: Radioligand binding assay, [3H]-SB649868, hOx2R; conditions: radioligand [3H]-SB649868, competition
Procedure: as §1, §2, §3

hOx2R [3] = molecular target: T2, hOx2R; test: Calcium accumulation in cells (FLIPR), hOx2R; format: cell-based; conditions: inhibition of orexin A induced calcium accumulation, Cheng and Prusoff correction
Method in brief: (§4)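 Cells expressing human orexin 1 or 2 receptor, serum-deprived overnight, loaded with Fluo-4-AM (2 μM) plus 0.1 mM probenecid, pH 7.4 HEPES buffer with 1% BSA.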

hOx1R [4] = molecular target: T1, hOx1R; test: Calcium accumulation in cells (FLIPR), hOx1R; format: cell-based; conditions: inhibition of orexin A induced calcium accumulation, Cheng and Prusoff correction
Method in brief: as §4

T2 sequence (O43614 whole entry): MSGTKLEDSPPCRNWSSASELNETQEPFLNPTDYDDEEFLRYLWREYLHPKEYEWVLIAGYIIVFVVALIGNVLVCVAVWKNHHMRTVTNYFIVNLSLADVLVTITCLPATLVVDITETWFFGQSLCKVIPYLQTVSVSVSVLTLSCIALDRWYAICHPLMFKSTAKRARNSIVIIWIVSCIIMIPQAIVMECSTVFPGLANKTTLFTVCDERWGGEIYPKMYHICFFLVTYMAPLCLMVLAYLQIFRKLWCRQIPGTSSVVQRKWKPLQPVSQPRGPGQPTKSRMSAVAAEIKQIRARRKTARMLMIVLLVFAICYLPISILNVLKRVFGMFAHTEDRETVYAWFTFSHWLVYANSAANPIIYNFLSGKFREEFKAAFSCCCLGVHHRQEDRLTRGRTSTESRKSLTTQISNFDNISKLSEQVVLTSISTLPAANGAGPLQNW
T1 sequence (O43613 whole entry): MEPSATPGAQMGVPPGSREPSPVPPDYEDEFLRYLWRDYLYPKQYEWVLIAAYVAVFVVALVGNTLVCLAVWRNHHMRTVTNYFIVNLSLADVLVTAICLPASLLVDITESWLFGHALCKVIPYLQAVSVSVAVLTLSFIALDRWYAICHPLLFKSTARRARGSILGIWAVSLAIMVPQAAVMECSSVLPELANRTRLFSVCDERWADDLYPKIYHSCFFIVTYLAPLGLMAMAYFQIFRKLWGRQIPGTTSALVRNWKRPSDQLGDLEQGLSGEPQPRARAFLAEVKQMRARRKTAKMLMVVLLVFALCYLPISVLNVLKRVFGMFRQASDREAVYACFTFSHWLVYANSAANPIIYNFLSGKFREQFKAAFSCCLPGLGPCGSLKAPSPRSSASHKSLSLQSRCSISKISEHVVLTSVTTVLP

Compound | Kd (hOx1R [1]) [nM] | Kd (hOx2R [2]) [nM] | Ki (hOx2R [3]) [nM] | Ki (hOx1R [4]) [nM]
O=C1N(Cc2cccc(-n3cccn3)n2)CCCC12CCN(c1cnc3ccccc3n1)CC2 [Example 83, 2-((6-(1H-pyrazol-1-yl)pyridin-2-yl)methyl)-9-(quinoxalin-2-yl)-2,9-diazaspiro[5.5]undecan-1-one] | 2760 | 364 | 80 | 1730
Cn1cc(CN2C(=O)CCCC23CCN(c2cnc4ccccc4n2)CC3)c2cccnc21 [Example 143, 1-((1-methyl-1H-pyrrolo[2,3-b]pyridin-3-yl)methyl)-9-(quinoxalin-2-yl)-1,9-diazaspiro[5.5]undecan-2-one] | 307 | 50 | 39 | 747
Cc1nc(CN2CCCC3(CCN(c4cnc5ccccc5n4)CC3)C2=O)c(-c2cccc(F)c2)s1 [Example 73, 2-((5-(3-fluorophenyl)-2-methylthiazol-4-yl)methyl)-9-(quinoxalin-2-yl)-2,9-diazaspiro[5.5]undecan-1-one] | 1150 | 219 | 55 | 438
Cc1ccc2oc(N3CCC4(CCCC(=O)N4Cc4cccc5[nH]ccc45)CC3)nc2c1 [Example 140, 1-((1H-indol-4-yl)methyl)-9-(5-methylbenzo[d]oxazol-2-yl)-1,9-diazaspiro[5.5]undecan-2-one] | 1580 | 379 | 81 | 662
Cc1nc(-c2cccc(CN3CCCC4(CCN(c5cnc6ccccc6n5)CC4)C3=O)c2)no1 [Example 98, 2-(3-(5-methyl-1,2,4-oxadiazol-3-yl)benzyl)-9-(quinoxalin-2-yl)-2,9-diazaspiro[5.5]undecan-1-one] | 980 | 223 | 50 | 425
O=C1N(Cc2ccnc(-n3cccn3)c2)CCCC12CCN(c1cnc3ccccc3n1)CC2 [Example 63, 2-((2-(1H-pyrazol-1-yl)pyridin-4-yl)methyl)-9-(quinoxalin-2-yl)-2,9-diazaspiro[5.5]undecan-1-one] | 3820 | 903 | 83 | 900
Cc1noc(-c2ccccc2CN2CCCC3(CCN(c4cnc5ccccc5n4)CC3)C2=O)n1 [Example 39, 2-(2-(3-methyl-1,2,4-oxadiazol-5-yl)benzyl)-9-(quinoxalin-2-yl)-2,9-diazaspiro[5.5]undecan-1-one] | 2770 | 243 | 25 | 1420
O=C1N(Cc2cccc(-c3ncccn3)c2)CCCC12CCN(c1cnc3ccccc3n1)CC2 [Example 61, 2-(3-(pyrimidin-2-yl)benzyl)-9-(quinoxalin-2-yl)-2,9-diazaspiro[5.5]undecan-1-one] | 2050 | 395 | 62 | 373
O=C1N(Cc2cccc(-n3nccn3)c2)CCCC12CCN(c1cnc3ccccc3n1)CC2 [Example 47, 2-(3-(2H-1,2,3-triazol-2-yl)benzyl)-9-(quinoxalin-2-yl)-2,9-diazaspiro[5.5]undecan-1-one] | 318 | 34 | 13 | 159
Cn1ccc2c(CN3C(=O)CCCC34CCN(c3cnc5ccccc5n3)CC4)cccc21 [Example 44, 1-((1-methyl-1H-indol-4-yl)methyl)-9-(quinoxalin-2-yl)-1,9-diazaspiro[5.5]undecan-2-one] | 56 | 125 | 48 | 64

Continued, values first:

Kd (hOx1R [1]) [nM] | Kd (hOx2R [2]) [nM] | Ki (hOx2R [3]) [nM] | Ki (hOx1R [4]) [nM] | Compound
1860 | 623 | 23 | 357 | O=C1N(Cc2cccc(-c3cnccn3)c2)CCCC12CCN(c1cnc3ccccc3n1)CC2 [Example 65, 2-(3-(pyrazin-2-yl)benzyl)-9-(quinoxalin-2-yl)-2,9-diazaspiro[5.5]undecan-1-one]
1280 | 134 | 29 | 422 | Cn1cc(CN2CCCC3(CCN(c4cnc5ccccc5n4)CC3)C2=O)c2ccccc21 [Example 130, 2-((1-methyl-1H-indol-3-yl)methyl)-9-(quinoxalin-2-yl)-2,9-diazaspiro[5.5]undecan-1-one]
3260 | 115 | 39 | 2110 | O=C1N(Cc2ccccc2-n2nccn2)CCCC12CCN(c1cnc3ccccc3n1)CC2 [Example 49, 2-(2-(2H-1,2,3-triazol-2-yl)benzyl)-9-(quinoxalin-2-yl)-2,9-diazaspiro[5.5]undecan-1-one]
> 10000 | 160 | 73 | 967 | Cc1ccc(-n2nccn2)cc1CN1CCCC2(CCN(c3cnc4ccccc4n3)CC2)C1=O [Example 128, 2-(2-methyl-5-(2H-1,2,3-triazol-2-yl)benzyl)-9-(quinoxalin-2-yl)-2,9-diazaspiro[5.5]undecan-1-one]
90 | 12 | 14 | 115 | Cc1cc(N2CCC3(CCCN(Cc4c[nH]c5ccccc45)C3=O)CC2)nc2ccccc12 [Example 164, 2-((1H-indol-3-yl)methyl)-9-(4-methylquinolin-2-yl)-2,9-diazaspiro[5.5]undecan-1-one]
806 | 111 | 68 | 571 | O=C1N(Cc2c[nH]c3ccccc23)CCCC12CCN(c1ccc3ccccc3n1)CC2 [Example 160, 2-((1H-indol-3-yl)methyl)-9-(quinolin-2-yl)-2,9-diazaspiro[5.5]undecan-1-one]
105 | 25 | 9 | 126 | O=C1N(Cc2n[nH]c3ccccc23)CCCC12CCN(c1cnc3ccccc3n1)CC2 [Example 129, 2-((1H-indazol-3-yl)methyl)-9-(quinoxalin-2-yl)-2,9-diazaspiro[5.5]undecan-1-one]
1670 | 152 | 81 | 665 | O=C1N(Cc2c[nH]c3ccccc23)CCCC12CCN(c1cc3nccnc3cn1)CC2 [Example 167, 2-((1H-indol-3-yl)methyl)-9-(pyrido[4,3-b]pyrazin-7-yl)-2,9-diazaspiro[5.5]undecan-1-one]
2100 | 185 | 45 | 744 | O=C1N(Cc2ccccc2-c2ccco2)CCCC12CCN(c1cnc3ccccc3n1)CC2 [Example 150, 2-(2-(furan-2-yl)benzyl)-9-(quinoxalin-2-yl)-2,9-diazaspiro[5.5]undecan-1-one]
429 | 36 | 8 | 223 | O=C1N(Cc2ncoc2-c2ccccc2)CCCC12CCN(c1cnc3ccccc3n1)CC2 [Example 95, 2-((5-phenyloxazol-4-yl)methyl)-9-(quinoxalin-2-yl)-2,9-diazaspiro[5.5]undecan-1-one]
1020 | 139 | 23 | 623 | O=C1N(Cc2c[nH]c3ccccc23)CCCC12CCN(c1nccc3occc13)CC2 [Example 156, 2-((1H-indol-3-yl)methyl)-9-(furo[3,2-c]pyridin-4-yl)-2,9-diazaspiro[5.5]undecan-1-one]
228 | 63 | 7 | 94 | Cc1cnc(-c2cccc(CN3CCCC4(CCN(c5cnc6ccccc6n5)CC4)C3=O)c2)o1 [Example 147, 2-(3-(5-methyloxazol-2-yl)benzyl)-9-(quinoxalin-2-yl)-2,9-diazaspiro[5.5]undecan-1-one]

— patent US8530648B2, “Diaza-spiro[5.5]undecanes” (Novartis AG, priority 2009, dated 2013)
